Test results from ChEMBL document CHEMBL1201862, “PubChem BioAssay data set” (2004).
Calls of active or inactive are those of the source.

Key:
Format in all cases: functional
[1] = biological target: Mitogen-activated protein kinase kinase kinase kinase 2 (Homo sapiens, UniProt Q12851);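 also: measured as one member of a kinome-wide kinase panel, with MAP4K2 as the panel entry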
[2] = biological target: Mitogen-activated protein kinase kinase kinase kinase 4 (Homo sapiens, UniProt O95819)
[3] = biological target: Serine/threonine-protein kinase TAO1 (Homo sapiens, UniProt Q7L7X3)
[4] = biological target: Tyrosine-protein kinase BTK (Homo sapiens, UniProt Q06187)
[5] = biological target: Macrophage-stimulating protein receptor (Homo sapiens, UniProt Q04912); experiment: Navigating the Kinome. Panel member name: MST1R
[6] = biological target: Vascular endothelial growth factor receptor 1 (Homo sapiens, UniProt P17948);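 also: measured within a kinome-wide profiling panel, FLT1 as the panel member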
[7] = biological target: Dual specificity protein kinase CLK4 (Homo sapiens, UniProt Q9HAZ1)
[8] = biological target: Mitogen-activated protein kinase 9 (Homo sapiens, UniProt P45984);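 also: value from a kinome panel profiling assay, MAPK9 panel entry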
Activin receptor type-1 = Activin receptor type-1 (Homo sapiens, UniProt Q04771); experiment: Navigating the Kinome. Panel member name: ACVR1
[9] = biological target: Calcium/calmodulin-dependent protein kinase type II subunit alpha (Homo sapiens, UniProt Q9UQM7); experiment: Navigating the Kinome. Panel member name: CAMK2A
[10] = biological target: cAMP-dependent protein kinase catalytic subunit PRKX (Homo sapiens, UniProt P51817)
LIM domain kinase 1 = LIM domain kinase 1 (Homo sapiens, UniProt P53667); experiment: Navigating the Kinome. Panel member name: LIMK1
[11] = biological target: Macrophage colony-stimulating factor 1 receptor (Homo sapiens, UniProt P07333);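 also: value comes from the Navigating the Kinome screening panel, CSF1R member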
[12] = biological target: BDNF/NT-3 growth factors receptor (Homo sapiens, UniProt Q16620);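 also: NTRK2 measured as one member of a broad kinome-wide kinase profiling panel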
[13] = biological target: Rho-associated protein kinase 1 (Homo sapiens, UniProt Q13464);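 also: measured within a broad kinome-wide panel profiling many kinases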
[14] = biological target: Ribosomal protein S6 kinase alpha-3 (Homo sapiens, UniProt P51812);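 also: measured within a kinome-wide profiling panel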
[15] = biological target: Cyclin-dependent kinase 9 (Homo sapiens, UniProt P50750);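 also: value from the CDK9 entry of a kinome-spanning kinase panel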
[16] = biological target: Death-associated protein kinase 3 (Homo sapiens, UniProt O43293);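 also: measured as one member of a kinome-wide profiling panel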
[17] = biological target: Dual specificity protein kinase CLK2 (Homo sapiens, UniProt P49760)
Focal adhesion kinase 1 = Focal adhesion kinase 1 (Homo sapiens, UniProt Q05397);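 also: measured as one member of a kinome panel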
[18] = biological target: Cyclin-dependent kinase 8 (Homo sapiens, UniProt P49336); experiment: Navigating the Kinome. Panel member name: CDK8
[19] = biological target: Vascular endothelial growth factor receptor 2 (Homo sapiens, UniProt P35968)
[20] = biological target: cAMP-dependent protein kinase catalytic subunit alpha (Homo sapiens, UniProt P17612)
Activated CDC42 kinase 1 = Activated CDC42 kinase 1 (Homo sapiens, UniProt Q07912); experiment: Navigating the Kinome. Panel member name: ACK1
[21] = biological target: Serine/threonine-protein kinase TBK1 (Homo sapiens, UniProt Q9UHD2); experiment: Navigating the Kinome. Panel member name: TBK1
[22] = biological target: ALK tyrosine kinase receptor (Homo sapiens, UniProt Q9UM73);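 also: ALK tested as one member of a kinase panel screen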
[23] = biological target: Insulin-like growth factor 1 receptor (Homo sapiens, UniProt P08069); experiment: Navigating the Kinome. Panel member name: IGF1R
[24] = biological target: High affinity nerve growth factor receptor (Homo sapiens, UniProt P04629);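 also: NTRK1 tested as one member of a kinome-wide profiling panel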
[25] = biological target: Dual specificity mitogen-activated protein kinase kinase 1 (Homo sapiens, UniProt Q02750); experiment: Navigating the Kinome. Panel member name: MAP2K1
[26] = biological target: Platelet-derived growth factor receptor alpha (Homo sapiens, UniProt P16234); experiment: Navigating the Kinome. Panel member name: PDGFRA
[27] = biological target: Tyrosine-protein kinase Fyn (Homo sapiens, UniProt P06241)
[28] = biological target: Glycogen synthase kinase-3 beta (Homo sapiens, UniProt P49841);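 also: value comes from a broad kinome profiling panel, with GSK3B as the panel member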
[29] = biological target: Tyrosine-protein kinase receptor TYRO3 (Homo sapiens, UniProt Q06418);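 also: TYRO3 value obtained as one member of a kinome-wide profiling panel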
Aurora kinase A = Aurora kinase A (Homo sapiens, UniProt O14965);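 also: value from the Navigating the Kinome kinase panel profiling, panel entry STK6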
[30] = biological target: Fibroblast growth factor receptor 1 (Homo sapiens, UniProt P11362)
[31] = biological target: Cyclin-dependent kinase 7 (Homo sapiens, UniProt P50613);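 also: value comes from a kinome-wide kinase profiling panel in which CDK7 is one member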
[32] = biological target: Serine/threonine-protein kinase D3 (Homo sapiens, UniProt O94806);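 also: determined within a kinase panel screen, with PRKCN as the panel member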
[33] = biological target: Mitogen-activated protein kinase 8 (Homo sapiens, UniProt P45983);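 also: value comes from one member of a kinome-wide kinase profiling panel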
[34] = biological target: Dual specificity tyrosine-phosphorylation-regulated kinase 1B (Homo sapiens, UniProt Q9Y463); experiment: Navigating the Kinome. Panel member name: DYRK1B
[35] = biological target: Leucine-rich repeat serine/threonine-protein kinase 2 (Homo sapiens, UniProt Q5S007);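 also: value from a broad kinome-wide panel profiling study in which LRRK2 was one of the kinases tested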
[36] = biological target: Tyrosine-protein kinase JAK2 (Homo sapiens, UniProt O60674);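 also: JAK2 tested as one member of a kinase panel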
[37] = biological target: Serine/threonine-protein kinase pim-1 (Homo sapiens, UniProt P11309)
[38] = biological target: Serine/threonine-protein kinase PAK 4 (Homo sapiens, UniProt O96013);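 also: value obtained within a kinome profiling panel in which PAK4 was one of the panel members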
[39] = biological target: Receptor-type tyrosine-protein kinase FLT3 (Homo sapiens, UniProt P36888);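 also: FLT3 was tested as one member of a kinome-wide kinase panel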
[40] = biological target: 5'-AMP-activated protein kinase catalytic subunit alpha-1 (Homo sapiens, UniProt Q13131)
[41] = biological target: Dual specificity mitogen-activated protein kinase kinase 2 (Homo sapiens, UniProt P36507); experiment: Navigating the Kinome. Panel member name: MAP2K2
[42] = biological target: Glycogen synthase kinase-3 alpha (Homo sapiens, UniProt P49840);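 also: GSK3A result taken from a broad kinome-wide kinase panel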
[43] = biological target: Leukocyte tyrosine kinase receptor (Homo sapiens, UniProt P29376); experiment: Navigating the Kinome. Panel member name: LTK
Aurora kinase B = Aurora kinase B (Homo sapiens, UniProt Q96GD4)
[44] = biological target: Casein kinase I isoform alpha (Homo sapiens, UniProt P48729)
[45] = biological target: Serine/threonine-protein kinase Nek2 (Homo sapiens, UniProt P51955)
[46] = biological target: Serine/threonine-protein kinase Chk1 (Homo sapiens, UniProt O14757);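 also: measured as one member of a kinome-wide kinase profiling panel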
[47] = biological target: Inhibitor of nuclear factor kappa-B kinase subunit epsilon (Homo sapiens, UniProt Q14164); experiment: Navigating the Kinome. Panel member name: IKBKE
[48] = biological target: Tyrosine-protein kinase ABL1 (Homo sapiens, UniProt P00519)
[49] = biological target: Tyrosine-protein kinase Lck (Homo sapiens, UniProt P06239);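 also: lck was assayed as one member of a kinase panel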
[50] = biological target: Platelet-derived growth factor receptor beta (Homo sapiens, UniProt P09619);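 also: value comes from a kinome panel, with PDGFRB tested as one panel member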
[51] = biological target: Dual specificity tyrosine-phosphorylation-regulated kinase 1A (Homo sapiens, UniProt Q13627);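 also: measured against DYRK1A as one member of a broad kinome profiling panel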
[52] = biological target: Tyrosine-protein kinase JAK3 (Homo sapiens, UniProt P52333)
[53] = biological target: Protein kinase C theta type (Homo sapiens, UniProt Q04759); experiment: Navigating the Kinome. Panel member name: PRKCQ

Serine/threonine-protein kinase Chk1, sequence (O14757 whole entry): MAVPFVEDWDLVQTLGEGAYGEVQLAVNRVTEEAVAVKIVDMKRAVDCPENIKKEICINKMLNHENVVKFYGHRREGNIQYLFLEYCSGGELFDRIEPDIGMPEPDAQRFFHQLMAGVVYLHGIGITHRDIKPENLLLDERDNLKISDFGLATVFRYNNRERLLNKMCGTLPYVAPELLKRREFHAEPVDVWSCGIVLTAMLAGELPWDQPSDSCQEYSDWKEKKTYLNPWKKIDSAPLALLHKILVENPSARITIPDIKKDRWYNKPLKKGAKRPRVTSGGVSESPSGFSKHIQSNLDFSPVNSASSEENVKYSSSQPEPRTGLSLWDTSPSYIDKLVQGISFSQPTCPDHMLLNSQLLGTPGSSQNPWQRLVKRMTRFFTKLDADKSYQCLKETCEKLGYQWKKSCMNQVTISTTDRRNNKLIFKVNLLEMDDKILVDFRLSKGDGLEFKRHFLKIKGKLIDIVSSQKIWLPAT
Activated CDC42 kinase 1, sequence (Q07912 whole entry): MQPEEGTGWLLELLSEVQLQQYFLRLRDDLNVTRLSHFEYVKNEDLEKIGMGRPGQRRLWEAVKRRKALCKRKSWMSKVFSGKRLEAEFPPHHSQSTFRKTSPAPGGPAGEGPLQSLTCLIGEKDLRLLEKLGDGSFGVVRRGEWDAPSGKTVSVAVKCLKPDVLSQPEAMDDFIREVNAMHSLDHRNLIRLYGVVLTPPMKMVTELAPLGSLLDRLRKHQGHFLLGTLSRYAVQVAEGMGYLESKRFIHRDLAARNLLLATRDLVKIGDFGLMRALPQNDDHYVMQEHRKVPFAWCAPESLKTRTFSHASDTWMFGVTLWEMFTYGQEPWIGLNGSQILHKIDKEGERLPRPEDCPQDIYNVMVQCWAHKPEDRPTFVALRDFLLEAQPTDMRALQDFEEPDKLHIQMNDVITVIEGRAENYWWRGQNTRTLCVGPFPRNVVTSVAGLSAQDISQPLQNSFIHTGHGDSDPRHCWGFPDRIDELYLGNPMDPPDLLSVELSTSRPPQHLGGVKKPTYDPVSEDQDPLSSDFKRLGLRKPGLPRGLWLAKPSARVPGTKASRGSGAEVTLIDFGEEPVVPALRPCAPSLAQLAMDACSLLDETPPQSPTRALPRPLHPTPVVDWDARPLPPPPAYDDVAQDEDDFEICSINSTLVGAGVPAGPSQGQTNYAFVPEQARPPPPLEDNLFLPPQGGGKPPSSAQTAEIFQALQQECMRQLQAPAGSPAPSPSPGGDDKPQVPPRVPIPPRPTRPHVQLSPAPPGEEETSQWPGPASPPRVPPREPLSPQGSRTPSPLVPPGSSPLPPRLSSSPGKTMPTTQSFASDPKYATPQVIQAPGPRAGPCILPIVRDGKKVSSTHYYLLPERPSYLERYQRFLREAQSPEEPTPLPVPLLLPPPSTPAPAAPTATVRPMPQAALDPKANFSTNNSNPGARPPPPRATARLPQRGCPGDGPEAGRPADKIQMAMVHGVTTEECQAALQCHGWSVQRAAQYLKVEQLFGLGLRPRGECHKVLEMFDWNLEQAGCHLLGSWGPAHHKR
Ribosomal protein S6 kinase alpha-3, sequence (P51812 whole entry): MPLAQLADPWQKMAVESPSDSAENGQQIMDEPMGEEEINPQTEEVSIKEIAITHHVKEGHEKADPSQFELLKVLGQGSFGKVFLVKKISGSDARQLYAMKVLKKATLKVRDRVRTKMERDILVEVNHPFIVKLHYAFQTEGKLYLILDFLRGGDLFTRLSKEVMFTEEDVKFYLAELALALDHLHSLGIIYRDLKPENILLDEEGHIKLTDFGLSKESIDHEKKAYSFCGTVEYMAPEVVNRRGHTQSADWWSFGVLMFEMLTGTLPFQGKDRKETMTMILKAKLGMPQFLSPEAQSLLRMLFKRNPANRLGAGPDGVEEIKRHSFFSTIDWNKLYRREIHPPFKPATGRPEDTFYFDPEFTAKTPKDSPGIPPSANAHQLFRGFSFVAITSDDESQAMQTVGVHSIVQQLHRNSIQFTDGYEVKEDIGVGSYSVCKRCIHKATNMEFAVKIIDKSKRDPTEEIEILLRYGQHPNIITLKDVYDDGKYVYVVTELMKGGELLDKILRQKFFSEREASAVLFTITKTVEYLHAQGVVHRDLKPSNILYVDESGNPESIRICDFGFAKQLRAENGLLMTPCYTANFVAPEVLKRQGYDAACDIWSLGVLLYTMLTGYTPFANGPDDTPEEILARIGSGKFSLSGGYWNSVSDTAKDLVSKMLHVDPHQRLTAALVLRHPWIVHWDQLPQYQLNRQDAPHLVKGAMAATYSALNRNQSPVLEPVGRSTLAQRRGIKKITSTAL
Calcium/calmodulin-dependent protein kinase type II subunit alpha, sequence (Q9UQM7 whole entry): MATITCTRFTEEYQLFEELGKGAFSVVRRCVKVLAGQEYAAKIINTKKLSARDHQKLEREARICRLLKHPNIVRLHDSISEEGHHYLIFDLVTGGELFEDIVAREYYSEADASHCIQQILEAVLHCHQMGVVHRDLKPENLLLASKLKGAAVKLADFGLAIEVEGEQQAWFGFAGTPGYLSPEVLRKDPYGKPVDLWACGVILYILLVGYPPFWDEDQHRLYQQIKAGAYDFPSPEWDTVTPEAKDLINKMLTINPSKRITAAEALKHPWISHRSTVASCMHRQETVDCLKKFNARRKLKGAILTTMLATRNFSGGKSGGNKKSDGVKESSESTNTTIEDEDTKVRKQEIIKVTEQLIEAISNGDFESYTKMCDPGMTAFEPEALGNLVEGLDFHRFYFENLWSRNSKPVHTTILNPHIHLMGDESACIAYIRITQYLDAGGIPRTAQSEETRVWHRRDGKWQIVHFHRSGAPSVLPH
High affinity nerve growth factor receptor, sequence (P04629 whole entry): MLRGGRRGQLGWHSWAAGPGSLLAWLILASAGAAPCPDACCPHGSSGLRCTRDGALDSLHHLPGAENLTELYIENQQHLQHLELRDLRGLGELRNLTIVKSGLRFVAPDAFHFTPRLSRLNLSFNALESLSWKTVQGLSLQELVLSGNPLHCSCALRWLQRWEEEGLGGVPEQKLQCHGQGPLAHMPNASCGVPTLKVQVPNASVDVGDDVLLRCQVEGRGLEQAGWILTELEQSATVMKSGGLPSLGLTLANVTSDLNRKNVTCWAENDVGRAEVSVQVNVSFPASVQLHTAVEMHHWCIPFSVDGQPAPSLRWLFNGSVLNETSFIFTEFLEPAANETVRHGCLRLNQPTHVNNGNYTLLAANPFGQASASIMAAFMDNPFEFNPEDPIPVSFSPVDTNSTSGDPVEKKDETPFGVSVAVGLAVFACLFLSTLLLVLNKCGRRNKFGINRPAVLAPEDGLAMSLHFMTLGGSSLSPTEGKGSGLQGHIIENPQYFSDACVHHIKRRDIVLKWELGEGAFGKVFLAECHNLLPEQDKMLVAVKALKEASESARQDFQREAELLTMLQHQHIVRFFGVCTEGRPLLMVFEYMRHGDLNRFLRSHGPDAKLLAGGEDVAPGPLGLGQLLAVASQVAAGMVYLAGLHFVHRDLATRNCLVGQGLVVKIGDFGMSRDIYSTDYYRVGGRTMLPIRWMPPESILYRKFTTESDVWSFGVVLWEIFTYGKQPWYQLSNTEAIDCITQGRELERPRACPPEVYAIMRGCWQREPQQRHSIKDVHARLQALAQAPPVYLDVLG
5'-AMP-activated protein kinase catalytic subunit alpha-1, sequence (Q13131 whole entry): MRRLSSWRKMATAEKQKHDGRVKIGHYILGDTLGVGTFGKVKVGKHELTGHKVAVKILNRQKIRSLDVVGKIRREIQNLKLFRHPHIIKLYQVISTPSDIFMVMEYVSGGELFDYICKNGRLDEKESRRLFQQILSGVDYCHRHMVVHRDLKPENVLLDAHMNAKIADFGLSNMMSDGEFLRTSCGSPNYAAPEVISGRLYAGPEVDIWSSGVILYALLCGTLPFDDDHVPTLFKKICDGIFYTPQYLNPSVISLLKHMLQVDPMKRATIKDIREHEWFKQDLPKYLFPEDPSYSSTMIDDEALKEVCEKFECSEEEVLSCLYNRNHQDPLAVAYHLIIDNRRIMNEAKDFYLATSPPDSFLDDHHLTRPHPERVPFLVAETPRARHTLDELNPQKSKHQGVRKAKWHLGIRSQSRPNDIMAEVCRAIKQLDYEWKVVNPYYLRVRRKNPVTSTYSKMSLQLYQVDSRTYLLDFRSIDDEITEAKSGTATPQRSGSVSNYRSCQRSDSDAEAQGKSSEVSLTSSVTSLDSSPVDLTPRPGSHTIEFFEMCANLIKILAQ
Serine/threonine-protein kinase D3, sequence (O94806 whole entry): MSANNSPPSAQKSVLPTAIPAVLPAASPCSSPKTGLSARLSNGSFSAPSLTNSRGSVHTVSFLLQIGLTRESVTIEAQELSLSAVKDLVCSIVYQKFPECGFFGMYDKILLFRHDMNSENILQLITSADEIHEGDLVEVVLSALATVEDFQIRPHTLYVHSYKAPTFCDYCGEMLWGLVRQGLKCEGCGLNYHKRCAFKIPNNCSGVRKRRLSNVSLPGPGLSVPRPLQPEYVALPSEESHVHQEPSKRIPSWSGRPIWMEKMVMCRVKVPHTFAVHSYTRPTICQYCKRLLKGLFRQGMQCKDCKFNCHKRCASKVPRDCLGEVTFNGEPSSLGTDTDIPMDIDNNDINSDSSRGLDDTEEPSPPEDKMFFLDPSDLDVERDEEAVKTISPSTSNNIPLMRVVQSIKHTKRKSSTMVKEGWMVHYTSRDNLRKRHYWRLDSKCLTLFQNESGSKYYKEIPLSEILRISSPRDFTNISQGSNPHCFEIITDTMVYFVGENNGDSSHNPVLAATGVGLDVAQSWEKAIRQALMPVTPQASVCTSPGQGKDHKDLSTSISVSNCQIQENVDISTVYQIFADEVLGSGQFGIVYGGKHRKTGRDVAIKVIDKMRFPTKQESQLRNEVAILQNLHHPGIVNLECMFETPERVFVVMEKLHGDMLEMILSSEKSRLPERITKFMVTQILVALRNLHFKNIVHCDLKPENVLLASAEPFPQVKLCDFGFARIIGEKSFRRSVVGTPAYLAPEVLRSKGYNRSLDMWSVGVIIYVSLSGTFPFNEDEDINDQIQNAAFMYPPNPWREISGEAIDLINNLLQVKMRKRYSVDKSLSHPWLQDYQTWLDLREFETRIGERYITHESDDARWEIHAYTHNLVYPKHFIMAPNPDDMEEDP

In the case of CCC(=O)Nc1ccc(C(=O)N2CCNCC2)c(O)c1, the Ki [1] is reported as 398 nM (active), the Ki [2] is reported as > 5010 nM (inactive) and the Ki [3] is reported as 2510 nM (active). For the same compound, the Ki [4] was 1580 nM (active), the Ki [5] was 631 nM (active) and the Ki [6] was > 3980 nM (inactive). For the same compound, the Ki [7] was 39.8 nM (active), the Ki [8] was 398 nM (active) and the Ki (Activin receptor type-1) was > 3980 nM (inactive). The Ki [9] was 158 nM (active), the Ki [10] was 631 nM (active) and the Ki (LIM domain kinase 1) was 501 nM (active). The Ki [11] was 251 nM (active), the Ki [12] was 794 nM (active) and the Ki [13] was 1000 nM (active). The Ki [14] was 501 nM (active), the Ki [15] was 50.1 nM (active) and the Ki [16] was 794 nM (active). The Ki [17] was > 3980 nM (inactive), the Ki (Focal adhesion kinase 1) was 3980 nM (active) and the Ki [18] was 251 nM (active). The Ki [19] was 1580 nM (active), the Ki [20] was 100 nM (active) and the Ki (Activated CDC42 kinase 1) was 631 nM (active). For the same compound, the Ki [21] was > 3160 nM (inactive), the Ki [22] was 631 nM (active) and the Ki [23] was 398 nM (active). For the same compound, the Ki [24] was 126 nM (active), the Ki [25] was 398 nM (active) and the Ki [26] was 1000 nM (active). The Ki [27] was 794 nM (active), the Ki [28] was 100 nM (active) and the Ki [29] was 100 nM (active). For the same compound, the Ki (Aurora kinase A) was 158 nM (active), the Ki [30] was 158 nM (active) and the Ki [31] was 631 nM (active). For the same compound, the Ki [32] was 2000 nM (active), the Ki [33] was 631 nM (active) and the Ki [34] was 63.1 nM (active). The Ki [35] was > 2510 nM (inactive), the Ki [36] was 501 nM (active) and the Ki [37] was 79.4 nM (active). The Ki [38] was 794 nM (active), the Ki [39] was 316 nM (active) and the Ki [40] was 398 nM (active). The Ki [41] was 200 nM (active), the Ki [42] was 316 nM (active) and the Ki [43] was 79.4 nM (active). For the same compound, the Ki (Aurora kinase B) was 501 nM (active), the Ki [44] was 794 nM (active) and the Ki [45] was 501 nM (active). For the same compound, the Ki [46] was 398 nM (active), the Ki [47] was 2510 nM (active) and the Ki [48] was 1000 nM (active). The Ki [49] was 1580 nM (active), the Ki [50] was 316 nM (active) and the Ki [51] was 126 nM (active). For the same compound, the Ki [52] was 631 nM (active) and the Ki [53] was 794 nM (active).
